The source of these data is patent publication US11926631B2, “Method of treating cancer using amanitin derivatives” (Heidelberg Pharma Research GmbH, priority 2017, dated 2024).

*1 amine or outer side, *2 acyl side, *3 side chain or, on linkers, in order; H or OH if unused. Where a SMILES comes first, the peptide text is derived from it. Bridges are numbered along the chain shown (N, C = ends). [ ]: non-standard residue; d: D form. ξ: configuration not given here. Ile(4R-OH,5-OH) = C[C@H]([C@H](N)C(=O)O)[C@@H](O)CO; X2 = Nc1ccc2c(CC(N[*:1])C(=O)[*:2])c([*:3])[nH]c2c1; X1 = O=C([C@@H]1CC(O)CN1[*:1])[*:2]; ξC = NC(CS)C(=O)O

Data set [1] can be described thus: BrdU cell proliferation assay (cytotoxicity) on HEK293 cells. The format is cell-based. Conditions: human, 96 h incubation, BrdU assay (FIG. 4). Here is the method:
(§1) BrdU Cell Proliferation Assay on HEK293 and HEK293 OATP1B3 cells
(§2) Black 96-well plates with clear bottom with 2.0×10^3 HEK293 and HEK293 OATP1B3 cells/well and 90 μl growth medium per well including 10% FCS and supplements were prepared. Controls: “Blank” was set up with 100 μl medium without cells, “Background” and “100%” were set up with cells in 100 μl medium.
(§3) Incubation for 24 h at 37° C. and 5% CO2.
(§4) Dilution Scheme of HDP 30.2528 and Alpha-Amanitin:
(§5) The stock solutions were diluted 1:1,000 (1:10 and 1:100 dilution) in medium: • 10 μl Amanitin derivative stock solution (1.0×10^−2 M)+90 μl PBS=100 μl 1.0×10^−3 M • 2 μl dilution+198 μl medium=200 μl 1×10^−5 M
Further Dilutions: • A: 200 μl 1.0×10^−5 M • B: 80 μl growth medium+20 μl solution A (1:5 dilution) • C: 80 μl growth medium+20 μl solution B (1:5 dilution) • D: 80 μl growth medium+20 μl solution C (1:5 dilution) • E: 80 μl growth medium+20 μl solution D (1:5 dilution) • F: 80 μl growth medium+20 μl solution E (1:5 dilution) • G: 80 μl growth medium+20 μl solution F (1:5 dilution) • H: 80 μl growth medium+20 μl solution G (1:5 dilution)
10 μl of each solution were added to well triplicates. […]

Data set [2] in a line: BrdU cell proliferation assay (cytotoxicity) on HEK293 OATP1B3 cells. The format is cell-based. Conditions: human, 96 h incubation, BrdU assay (FIG. 4). How it is done:
as §1
HEK293-OATP1B3 cell culture plates were coated with poly-D-lysine.
Coating with Poly-D-Lysine: • 5 mg poly D-lysine in 50 ml sterile water • 50 μl in each well of a 96 well plate • Incubation for 1 h at RT • Washing of wells twice with 200 μl sterile water • Drying for at least for 2 h (RT)
as §2, §3, §4, §5
Further Dilutions: • A: 200 μl 1.0×10^−5 M • B: 80 μl growth medium+20 μl solution A (1:5 dilution) • C: 80 μl growth medium+20 μl solution B (1:5 dilution) • D: 80 μl growth medium+20 μl solution C (1:5 dilution) • E: 80 μl growth medium+20 μl solution D (1:5 dilution) • F: 80 μl growth medium+20 μl solution E (1:5 dilution) • G: 80 μl growth medium+20 μl solution F (1:5 dilution) • H: 80 μl growth medium+20 μl solution G (1:5 dilution) […]

The target of data set [3] is DNA-dependent RNA polymerase II (Homo sapiens, UniProt P24928+P30876). As to conditions: background statement, no test in the patent; read-out: KD of the complex with RNA-polymerase II; cited from earlier work.

Take `CC[C@H](C)[C@@H]1NC(=O)CNC(=O)C2Cc3c([nH]c4cc(N)ccc34)SCC(NC(=O)CNC1=O)C(=O)N[C@@H](CC(N)=O)C(=O)N1CC(O)C[C@H]1C(=O)N[C@@H]([C@@H](C)[C@@H](O)CO)C(=O)N2` (stereo partly drawn) [HDP 30.2528, 6′-amino-amaninamide] (cyclo(GIG[ξC]N[X1][Ile(4R-OH,5-OH)][X2]); thioether 4-8): the half-maximal effective concentration (EC50) at 96 h was 3000 nM in data set [1] and 30 nM in data set [2].

Take amanitin: the Kd in data set [3] is 3 nM.
